The subject of one experiment is CNS-1 glioma cell line. The experiment in a line: Glioma cell proliferation measured by XTT. The experiment is classed as cell-based, rat. Conditions: CNS-1 cells, 72 hours, TMZ 500 μM, SIXAC 10 μM, alone or combined. On the procedure: The following experiment tested the effect of the chemotherapeutic drug temozolomide (“TMZ”) in combination with the peptide conjugate Tosyl-ATLDPR-chloromethylketone (tosyl-SEQ ID NO: 3-CMK) on the proliferation of glioma cells. The peptide conjugate contains 6 amino acids from the N-terminus of PAR-1: ATLDPR (SEQ ID NO: 3), and is denoted herein as “SIXAC”.
In particular, CNS-1 glioma cell line (rat) was treated with either TMZ (500 μM), SIXAC (10 μM) or a combination of TMZ (500 μM) and SIXAC (10 μM) for 72 hours. Proliferation was measured by means of XTT in comparison to non-treated cells (control).
In general terms: Formazan colour is commonly taken as a measure of viable cells.

The test system of the next experiment is PAR-1. The experiment in a line: Western blot of PAR-1 level in glioma cells. The experiment is classed as cell-based, rat. Conditions: CNS-1 cells, 24 h; TMZ 500 μM, SIXAC 10 μM, alone or combined; vs FCS-free medium with 0.2% DMSO. As to the method:
(§1) More particularly, the expression of two proteins, PAR-1 and phosphorylated extracellular signal-regulated kinase (pERK), was examined in glioma cells incubated with TMZ, SIXAC or a combination of TMZ+SIXAC.
(§2) CNS-1 rat glioma cells were grown in Dulbecco's modified Eagle's medium (DMEM; Bet Haemek, Biological Industries, Israel) supplemented with 10% fetal bovine serum (Bet Haemek, Biological Industries, Israel) and 1% penicillin and streptomycin in a 5% CO2-humidified atmosphere.
(§3) CNS-1 cells were seeded and incubated for 24 h. Then the medium was replaced by FCS-free medium for additional 24 h. Next, the cells were treated for 24 h with SIXAC (10 μM), TMZ (500 μM), a combination of TMZ (500 μM) and SIXAC (10 μM) or a FCS-free medium (containing 0.2% DMSO) which was used as a control (n=4 for each treatment group). The cells were then washed with ice-cold PBS and lysed in RIPA buffer (containing in mM: 50 TRIS HCl pH 8, 150 NaCl, 1% NP-40, 0.5% sodium deoxycholate, and 0.1% SDS), a protease inhibitor cocktail (Merck Millipore 539134, 1:100), 0.1 mM sodium orthovanadate and 2 mM PMSF. The cells were scraped, collected and centrifuged (16,000 g×20 min) at 4° C. The supernatants were collected, and protein concentration was determined by means of a bicinchoninic acid (BCA) assay.
For orientation: A western blot detects proteins with antibodies after separation by electrophoresis.

Experiment [1] relates to phosphorylated extracellular signal-regulated kinase (pERK). The experiment in a line: Western blot of pERK level in glioma cells. Type of experiment: cell-based, rat. The following applies: CNS-1 cells, 24 h; TMZ 500 μM, SIXAC 10 μM, alone or combined; vs FCS-free medium with 0.2% DMSO. As to the method:
as §1, §2, §3

The next experiment relates to C6 rat glioma cells. Kind of experiment: Scratch (wound healing) assay of glioma cell migration. The experiment is classed as cell-based. The following applies: 4 h of incubation, SIXAC 1 μM, TMZ 100 μM, alone or combined. As to the method: C6 rat glioma cells were grown in Dulbecco's modified Eagle's medium (DMEM; Bet Haemek, Biological Industries, Israel) supplemented with 10% fetal bovine serum (Bet Haemek, Biological Industries, Israel) and 1% penicillin and streptomycin in a 5% CO2-humidified atmosphere.
The effect of TMZ and SIXAC on the coordinated movement of C6 glioma cells was evaluated using a wound healing assay. The cells were seeded in 24-well plates at a density of 5×10^4 cells/well. Cells were cultured in FCS-free medium for 24 h. A wound was established by scraping using 10 μl pipette tip. Cells were washed twice with warm PBS and then fresh FCS-free medium was added, containing SIXAC (1 μM), TMZ (100 μM) or a combination of SIXAC and TMZ. Wells with FCS-free medium only or FCS-free medium+DMSO 0.2% were used as controls (marked as “control” and “control+DMSO”) Image acquisition of wound gap closure (%) was carried out following 4 h of incubation using a Nikon Eclipse microscope Images were analyzed using Fiji software.

The next experiment has as its system CNS-1 brain tumor. The experiment in a line: Survival in an animal model of GBM (CNS-1 cells injected into parietal cortex, intratumoral osmotic pump). Type of experiment: in vivo. The following applies: rat GBM model; osmotic pump into tumor for 14 days; TMZ 2 mg/rat, SIXAC 6.9 μg/rat (20 μg/kg/day); monitored until Day 25. On the procedure: CNS-1 cells ([…]) were injected using stereotactic methods into the parietal cortex of rats (n=20, 16 rats survived the surgery).
Five days later (Day 5) the brains of the rats that survived the surgery were examined by MRI and the tumors scored on a scale of 1-3. For each rat, a catheter was placed in the brain tumor and attached to an osmotic pump (Alzet®) releasing one of the following treatments ([…], for 14 days): TMZ 2 mg/rat (n=7), or TMZ 2 mg/rat and SIXAC 6.9 μg/rat (20 μg/kg/day) (n=7) (TMZ was dissolved in saline and 0.1M acetate buffer pH5) (50:50 v/v ratio).
The groups were monitored daily for survival until Day 25.

The star is where a group is joined. Tos = Cc1ccc(S(=O)(=O)*)cc1; CH2Cl = ClC*

For the compound “tosyl-Ala-Thr-Leu-Asp-Pro-Arg-chloromethylketone (Tos-ATLDPR-CH2Cl; SMILES Cc1ccc(S(=O)(=O)N[C@@H](C)C(=O)N[C@H](C(=O)N[C@@H](CC(C)C)C(=O)N[C@@H](CC(=O)O)C(=O)N2CCC[C@H]2C(=O)N[C@@H](CCCNC(=N)N)C(=O)CCl)[C@@H](C)O)cc1) [SIXAC, peptide conjugate containing 6 amino acids from the N-terminus of PAR-1 with tosyl and chloromethylketone moieties]”, the “cell proliferation compared to non-treated cells (control)” value with CNS-1 glioma cell line is “minor effect”. Moreover, in the experiment with PAR-1, the PAR1 expression result is reported as “did not cause any significant change”. Besides, in experiment [1], the pERK expression entry was “did not cause any significant change”. In the experiment on C6 rat glioma cells, the wound-closure percentage entry is recorded as “significantly decrease”.

For the compound `Cn1nnc2c(C(N)=O)ncn2c1=O` [TMZ, temozolomide, reference compound], in the experiment with CNS-1 glioma cell line, the “cell proliferation compared to non-treated cells (control)” value was “no significant effect”. Moreover, in the experiment with CNS-1 brain tumor, the Median survival was determined as 14 days.

The record behind these values is US11497793B2, “Compositions and methods for treating glioblastoma” (TEL HASHOMER MEDICAL RESEARCH INFRASTRUCTURE AND SERVICES …, priority 2018, dated 2022).
